Tests used:
[1] = test system: rat; details: Developmental neurotoxicity study; sprague dawley; Injection; Intraperitoneal; dose end: 74 PND; group: cannot be grouped; reproductive / reproductive performance / aborted / aborted + developmental / offspring survival late / [other] / [other] + systemic / in …
[2] = test system: dog; details: Subchronic oral toxicity in nonrodent, beagle, Feed, dose end: 16 week, group: systemic, systemic / in life observation / body weight / body weight
[3] = test system: rat; details: Subchronic oral toxicity in rodents, sprague dawley, Feed, dose end: 13 week, group: systemic, systemic / in life observation / body weight / body weight + systemic / in life observation / body weight / body weight gain + systemic / in…
[4] = test system: rat; details: Subchronic oral toxicity in rodents, sprague dawley, Feed, dose end: 3 month, group: systemic, systemic / in life observation / body weight / body weight + systemic / in life observation / body weight / body weight gain
[5] = test system: rat; details: Multigenerational reproductive toxicity study, sprague dawley, Oral, Feed, dose end: 2 generation
[6] = test system: mouse; details: Prenatal developmental toxicity study; cd1; Oral; Gavage/Intubation; dose end: 17 GD; group: developmental; systemic / in life observation / clinical signs / aggressive behavior + systemic / organ weight / testes / absolute
[7] = test system: mouse; details: Carcinogenicity; other; Oral; Feed; dose end: 104 week; group: systemic; systemic / pathology microscopic / liver / vacuolization
[8] = test system: dog; details: Subchronic oral toxicity in nonrodent, beagle, Feed, dose end: 6 month, group: systemic, systemic / clinical chemistry / alkaline phosphatase (alp/alk) / alkaline phosphatase (alp/alk) + systemic / organ weight / liver / absolute…
[9] = test system: rat; details: Subchronic oral toxicity in rodents, Feed, dose end: 90 day, group: systemic
[10] = test system: dog; details: Chronic toxicity, beagle, Oral, Feed, dose end: 6 month, group: systemic
[11] = test system: mouse; details: Subchronic oral toxicity in rodents, Feed, dose end: 90 day, group: systemic
[12] = test system: rat; details: Combined chronic toxicity/carcinogenicity, sprague dawley, Oral, Feed, dose end: 105 week, group: systemic
[13] = test system: rat; details: Prenatal developmental toxicity study, other, Oral, Gavage/Intubation, dose end: 15 GD
[14] = group: offspring, systemic / in life observation / clinical signs / [other]
[15] = group: parental, systemic / organ weight / liver / relative to body weight
[16] = systemic / organ weight / liver / absolute + systemic / organ weight / liver / relative to body weight
[17] = systemic / organ weight / liver / absolute + systemic / organ weight / liver / relative to body weight + systemic / pathology microscopic / …
[18] = systemic / clinical chemistry / alkaline phosphatase (alp/alk) / alkaline phosphatase (alp/alk) + systemic / hematology / erythrocyte (rbc) …
[19] = systemic / organ weight / liver / absolute + systemic / organ weight / liver / relative to body weight + systemic / clinical chemistry / …
[20] = systemic / pathology microscopic / liver / vacuolization
[21] = systemic / pathology microscopic / liver / vacuolization + systemic / organ weight / liver / absolute + systemic / organ weight / liver / …
[22] = group: developmental, developmental / developmental malformation / bone / absent + developmental / developmental malformation / bone / incomplete ossification + …
[23] = group: maternal, systemic / in life observation / clinical signs / convulsions + systemic / in life observation / clinical signs / fur (altered appearance…

NC(=O)NO [Hydroxyurea]
LEL [1]: 2000 mg/kg/day | LOAEL [1]: > 2000 mg/kg/day | NEL [1]: < 2000 mg/kg/day | NOAEL [1]: ≥ 2000 mg/kg/day

CCc1cccc(C)c1N(C(=O)CCl)[C@@H](C)COC [S-Metolachlor]
LEL [2]: 31.1 mg/kg/day | LOAEL [2]: > 62 mg/kg/day | NEL [2]: 15.1 mg/kg/day | NOAEL [2]: ≥ 62 mg/kg/day | LEL [3]: 150 mg/kg/day | LOAEL [3]: 150 mg/kg/day | NEL [3]: 15 mg/kg/day | NOAEL [3]: 15 mg/kg/day | LEL [4]: 259 mg/kg/day | LOAEL [4]: 259 mg/kg/day | NEL [4]: 23.4 mg/kg/day | NOAEL [4]: 23.4 mg/kg/day

Clc1ccc(C(c2ccccc2Cl)C(Cl)(Cl)Cl)cc1 (stereo not given) [o,p'-DDT]
LEL [5, 14]: 10 mg/kg/day | LOAEL [5, 14]: > 10 mg/kg/day | NEL [5, 14]: 1 mg/kg/day | NOAEL [5, 14]: ≥ 10 mg/kg/day | LEL [5, 15]: 10 mg/kg/day | LOAEL [5, 15]: > 10 mg/kg/day | NEL [5, 15]: 1 mg/kg/day | NOAEL [5, 15]: ≥ 10 mg/kg/day | LEL [6]: 18 mg/kg/day | LOAEL [6]: > 180 mg/kg/day | NEL [6]: < 18 mg/kg/day | NOAEL [6]: ≥ 180 mg/kg/day

COCC(=O)N(c1c(C)cccc1C)C(C)C(=O)OC (stereo not given) [Metalaxyl]
LEL [7]: 129 mg/kg/day | LOAEL [7]: 129 mg/kg/day | NEL [7]: 24.9 mg/kg/day | NOAEL [7]: 24.9 mg/kg/day | LEL [8]: 30.6 mg/kg/day | LOAEL [8]: 30.6 mg/kg/day | NEL [8]: 7.8 mg/kg/day | NOAEL [8]: 7.8 mg/kg/day | LEL [9, 16]: 2.5 mg/kg/day | NEL [9, 16]: < 2.5 mg/kg/day | LOAEL [9, 17]: > 62.5 mg/kg/day | NOAEL [9, 17]: ≥ 62.5 mg/kg/day | LOAEL ([10]; systemic / clinical chemistry / alkaline phosphatase (alp/alk) / alkaline phosphatase (alp/alk)): 30.6 mg/kg/day | LEL [10, 18]: 30.6 mg/kg/day | NEL [10, 18]: 7.8 mg/kg/day | NOAEL [10, 18]: 7.8 mg/kg/day | LEL [11, 16]: 188 mg/kg/day | NEL [11, 16]: < 188 mg/kg/day | LOAEL [11, 19]: > 750 mg/kg/day | NOAEL [11, 19]: ≥ 750 mg/kg/day | LEL [12, 20]: 1.88 mg/kg/day | NEL [12, 20]: < 1.88 mg/kg/day | LOAEL [12, 21]: 46.6 mg/kg/day | NOAEL [12, 21]: 9.43 mg/kg/day | LEL [13, 22]: 400 mg/kg/day | LOAEL [13, 22]: 400 mg/kg/day | NEL [13, 22]: 250 mg/kg/day | NOAEL [13, 22]: 250 mg/kg/day | LEL [13, 23]: 250 mg/kg/day | LOAEL [13, 23]: 250 mg/kg/day | NEL [13, 23]: 50 mg/kg/day | NOAEL [13, 23]: 50 mg/kg/day
